# System: OCI-LY3
# Test: Combination of EPZ-6438 and other therapeutic agents (4+3 model), OCI-LY3
# Conditions: WT EXH2 ABC
row,Structure (SMILES),"combination effect with EPZ-6438, OCI-LY3"
1,CC(=O)Nc1cccc(-n2c(=O)n(C3CC3)c(=O)c3c(Nc4ccc(I)cc4F)n(C)c(=O)c(C)c32)c1 [Trametinib],S
2,CC1(C)CCC(CN2CCN(c3ccc(C(=O)NS(=O)(=O)c4ccc(NCC5CCOCC5)c([N+](=O)[O-])c4)c(Oc4cnc5[nH]ccc5c4)c3)CC2)=C(c2ccc(Cl)cc2)C1 [ABT-199],S
3,CC1(C)CCC(c2ccc(Cl)cc2)=C(CN2CCN(c3ccc(C(=O)NS(=O)(=O)c4ccc(N[C@H](CCN5CCOCC5)CSc5ccccc5)c(S(=O)(=O)C(F)(F)F)c4)cc3)CC2)C1 [Navitoclax],S
4,CC[C@H](Nc1ncnc2[nH]cnc12)c1nc2cccc(F)c2c(=O)n1-c1ccccc1 [Idelalisib],S

# System: RC-K8
# Test: Combination of EPZ-6438 and other therapeutic agents (4+3 model), RC-K8
# Conditions: WT EXH2 ABC
row,Structure (SMILES),"combination effect with EPZ-6438, RC-K8"
1,Cc1sc2c(c1C)C(c1ccc(Cl)cc1)=N[C@@H](CC(=O)OC(C)(C)C)c1nnc(C)n1-2 [JQ1],S
2,CC1(C)CCC(CN2CCN(c3ccc(C(=O)NS(=O)(=O)c4ccc(NCC5CCOCC5)c([N+](=O)[O-])c4)c(Oc4cnc5[nH]ccc5c4)c3)CC2)=C(c2ccc(Cl)cc2)C1 [ABT-199],S
3,CC1(C)CCC(c2ccc(Cl)cc2)=C(CN2CCN(c3ccc(C(=O)NS(=O)(=O)c4ccc(N[C@H](CCN5CCOCC5)CSc5ccccc5)c(S(=O)(=O)C(F)(F)F)c4)cc3)CC2)C1 [Navitoclax],S
4,CC[C@H](Nc1ncnc2[nH]cnc12)c1nc2cccc(F)c2c(=O)n1-c1ccccc1 [Idelalisib],S
5,CCOC(=O)CCNc1cc(N2CCc3ccccc3CC2)nc(-c2ccccn2)n1 [GSK J4],ADD.
6,CN(Cc1cnc2nc(N)nc(N)c2n1)c1ccc(C(=O)N[C@@H](CCC(=O)O)C(=O)O)cc1 [Methotrexate],ANTAG.
7,Nc1cccc2c1CN(C1CCC(=O)NC1=O)C2=O (centres unmarked) [Lenalidomide],S

# System: SU-DHL-10
# Test: Combination of EPZ-6438 and other therapeutic agents (4+3 model), SU-DHL-10
# Conditions: Mutant EZH2 GCB
row,Structure (SMILES),"combination effect with EPZ-6438, SU-DHL-10"
1,N#CC[C@H](C1CCCC1)n1cc(-c2ncnc3[nH]ccc23)cn1 [Ruxolitinib],S
2,CC(=O)Nc1cccc(-n2c(=O)n(C3CC3)c(=O)c3c(Nc4ccc(I)cc4F)n(C)c(=O)c(C)c32)c1 [Trametinib],S
3,CC1(C)CCC(CN2CCN(c3ccc(C(=O)NS(=O)(=O)c4ccc(NCC5CCOCC5)c([N+](=O)[O-])c4)c(Oc4cnc5[nH]ccc5c4)c3)CC2)=C(c2ccc(Cl)cc2)C1 [ABT-199],ADD.
4,CC1(C)CCC(c2ccc(Cl)cc2)=C(CN2CCN(c3ccc(C(=O)NS(=O)(=O)c4ccc(N[C@H](CCN5CCOCC5)CSc5ccccc5)c(S(=O)(=O)C(F)(F)F)c4)cc3)CC2)C1 [Navitoclax],S
5,COc1cc(Nc2ncc3c(n2)-c2ccc(Cl)cc2C(c2c(F)cccc2OC)=NC3)ccc1C(=O)O [Alisertib],ADD.
6,CC[C@H](Nc1ncnc2[nH]cnc12)c1nc2cccc(F)c2c(=O)n1-c1ccccc1 [Idelalisib],S
7,Cn1cc(C2=C(c3cn(C4CCN(Cc5ccccn5)CC4)c4ccccc34)C(=O)NC2=O)c2ccccc21 [Enzastaurin],S
8,CC(C)C[C@H](NC(=O)[C@H](Cc1ccccc1)NC(=O)c1cnccn1)B(O)O [Velcade],ADD.
9,Cc1nc(Nc2ncc(C(=O)Nc3c(C)cccc3Cl)s2)cc(N2CCN(CCO)CC2)n1 [Dasatinib],S

# System: HT
# Test: Combination of EPZ-6438 and other therapeutic agents (4+3 model), HT
# Conditions: WT EZH2 GCB
row,Structure (SMILES),"combination effect with EPZ-6438, HT"
1,CC[C@H](Nc1ncnc2[nH]cnc12)c1nc2cccc(F)c2c(=O)n1-c1ccccc1 [Idelalisib],S

# System: SU-DHL-6
# Test: Combination of EPZ-6438 and other therapeutic agents (4+3 model), SU-DHL-6
# Conditions: Mutant EZH2 GCB
row,Structure (SMILES),"combination effect with EPZ-6438, SU-DHL-6"
1,Cc1sc2c(c1C)C(c1ccc(Cl)cc1)=N[C@@H](CC(=O)OC(C)(C)C)c1nnc(C)n1-2 [JQ1],S
2,CC(=O)Nc1cccc(-n2c(=O)n(C3CC3)c(=O)c3c(Nc4ccc(I)cc4F)n(C)c(=O)c(C)c32)c1 [Trametinib],S
3,CC1(C)CCC(CN2CCN(c3ccc(C(=O)NS(=O)(=O)c4ccc(NCC5CCOCC5)c([N+](=O)[O-])c4)c(Oc4cnc5[nH]ccc5c4)c3)CC2)=C(c2ccc(Cl)cc2)C1 [ABT-199],ADD.
4,CC1(C)CCC(c2ccc(Cl)cc2)=C(CN2CCN(c3ccc(C(=O)NS(=O)(=O)c4ccc(N[C@H](CCN5CCOCC5)CSc5ccccc5)c(S(=O)(=O)C(F)(F)F)c4)cc3)CC2)C1 [Navitoclax],S
5,CC[C@H](Nc1ncnc2[nH]cnc12)c1nc2cccc(F)c2c(=O)n1-c1ccccc1 [Idelalisib],S
6,CCOC(=O)CCNc1cc(N2CCc3ccccc3CC2)nc(-c2ccccn2)n1 [GSK J4],ADD.
7,CC(C)C[C@H](NC(=O)[C@H](Cc1ccccc1)NC(=O)c1cnccn1)B(O)O [Velcade],ADD.

# System: SUDHL5
# Test: Combination of EPZ-6438 and other therapeutic agents (4+3 model), SUDHL5
# Conditions: WT EZH2 GCB
row,Structure (SMILES),"combination effect with EPZ-6438, SUDHL5"
1,CC(=O)Nc1cccc(-n2c(=O)n(C3CC3)c(=O)c3c(Nc4ccc(I)cc4F)n(C)c(=O)c(C)c32)c1 [Trametinib],S
2,COc1cc(Nc2ncc3c(n2)-c2ccc(Cl)cc2C(c2c(F)cccc2OC)=NC3)ccc1C(=O)O [Alisertib],ADD.
3,CC[C@H](Nc1ncnc2[nH]cnc12)c1nc2cccc(F)c2c(=O)n1-c1ccccc1 [Idelalisib],S
4,Cn1cc(C2=C(c3cn(C4CCN(Cc5ccccn5)CC4)c4ccccc34)C(=O)NC2=O)c2ccccc21 [Enzastaurin],ADD.
5,Cc1nc(Nc2ncc(C(=O)Nc3c(C)cccc3Cl)s2)cc(N2CCN(CCO)CC2)n1 [Dasatinib],S

# System: DOHH2
# Test: Combination of EPZ-6438 and other therapeutic agents (4+3 model), DOHH2
# Assay type: cell-based
# Conditions: WT EZH2 GCB
row,Structure (SMILES),"combination effect with EPZ-6438, DOHH2"
1,CCOC(=O)CCNc1cc(N2CCc3ccccc3CC2)nc(-c2ccccn2)n1 [GSK J4],ADD.
2,CN(Cc1cnc2nc(N)nc(N)c2n1)c1ccc(C(=O)N[C@@H](CCC(=O)O)C(=O)O)cc1 [Methotrexate],ANTAG.

# System: OCI-LY19
# Test: Combination of EPZ-6438 and other therapeutic agents (4+3 model), OCI-LY19
# Conditions: WT EZH2 GCB; 4+3 model
row,Structure (SMILES),"combination effect with EPZ-6438, OCI-LY19"
1,Cc1sc2c(c1C)C(c1ccc(Cl)cc1)=N[C@@H](CC(=O)OC(C)(C)C)c1nnc(C)n1-2 [JQ1],S
2,CC1(C)CCC(CN2CCN(c3ccc(C(=O)NS(=O)(=O)c4ccc(NCC5CCOCC5)c([N+](=O)[O-])c4)c(Oc4cnc5[nH]ccc5c4)c3)CC2)=C(c2ccc(Cl)cc2)C1 [ABT-199],S
3,CC1(C)CCC(c2ccc(Cl)cc2)=C(CN2CCN(c3ccc(C(=O)NS(=O)(=O)c4ccc(N[C@H](CCN5CCOCC5)CSc5ccccc5)c(S(=O)(=O)C(F)(F)F)c4)cc3)CC2)C1 [Navitoclax],S
4,CCOC(=O)CCNc1cc(N2CCc3ccccc3CC2)nc(-c2ccccn2)n1 [GSK J4],ADD.
5,CN(Cc1cnc2nc(N)nc(N)c2n1)c1ccc(C(=O)N[C@@H](CCC(=O)O)C(=O)O)cc1 [Methotrexate],ANTAG.

# System: Farage
# Test: Combination of EPZ-6438 and other therapeutic agents (4+3 model), Farage
# Conditions: WT EZH2 GCB
row,Structure (SMILES),"combination effect with EPZ-6438, Farage"
1,CC(=O)Nc1cccc(-n2c(=O)n(C3CC3)c(=O)c3c(Nc4ccc(I)cc4F)n(C)c(=O)c(C)c32)c1 [Trametinib],S
2,CC[C@H](Nc1ncnc2[nH]cnc12)c1nc2cccc(F)c2c(=O)n1-c1ccccc1 [Idelalisib],S

# System: KARPAS-422
# Test: Combination of EPZ-6438 and other therapeutic agents (4+3 model), KARPAS-422
# Conditions: Mutant EZH2 GCB
row,Structure (SMILES),"combination effect with EPZ-6438, KARPAS-422"
1,Cc1sc2c(c1C)C(c1ccc(Cl)cc1)=N[C@@H](CC(=O)OC(C)(C)C)c1nnc(C)n1-2 [JQ1],S
2,CC(=O)Nc1cccc(-n2c(=O)n(C3CC3)c(=O)c3c(Nc4ccc(I)cc4F)n(C)c(=O)c(C)c32)c1 [Trametinib],S
3,CC1(C)CCC(CN2CCN(c3ccc(C(=O)NS(=O)(=O)c4ccc(NCC5CCOCC5)c([N+](=O)[O-])c4)c(Oc4cnc5[nH]ccc5c4)c3)CC2)=C(c2ccc(Cl)cc2)C1 [ABT-199],S
4,CC1(C)CCC(c2ccc(Cl)cc2)=C(CN2CCN(c3ccc(C(=O)NS(=O)(=O)c4ccc(N[C@H](CCN5CCOCC5)CSc5ccccc5)c(S(=O)(=O)C(F)(F)F)c4)cc3)CC2)C1 [Navitoclax],S
5,CC[C@H](Nc1ncnc2[nH]cnc12)c1nc2cccc(F)c2c(=O)n1-c1ccccc1 [Idelalisib],S

# System: OCI-LY7
# Test: Combination of EPZ-6438 and other therapeutic agents (4+3 model), OCI-LY7
# Conditions: WT EZH2 GCB
row,Structure (SMILES),"combination effect with EPZ-6438, OCI-LY7"
1,CC(=O)Nc1cccc(-n2c(=O)n(C3CC3)c(=O)c3c(Nc4ccc(I)cc4F)n(C)c(=O)c(C)c32)c1 [Trametinib],S
2,CC1(C)CCC(c2ccc(Cl)cc2)=C(CN2CCN(c3ccc(C(=O)NS(=O)(=O)c4ccc(N[C@H](CCN5CCOCC5)CSc5ccccc5)c(S(=O)(=O)C(F)(F)F)c4)cc3)CC2)C1 [Navitoclax],S
3,CC[C@H](Nc1ncnc2[nH]cnc12)c1nc2cccc(F)c2c(=O)n1-c1ccccc1 [Idelalisib],S

# System: TMD8
# Test: Combination of EPZ-6438 and other therapeutic agents (4+3 model), TMD8
# Conditions: WT EXH2 ABC
row,Structure (SMILES),"combination effect with EPZ-6438, TMD8"
1,N#CC[C@H](C1CCCC1)n1cc(-c2ncnc3[nH]ccc23)cn1 [Ruxolitinib],S
2,CC(=O)Nc1cccc(-n2c(=O)n(C3CC3)c(=O)c3c(Nc4ccc(I)cc4F)n(C)c(=O)c(C)c32)c1 [Trametinib],S
3,CC[C@H](Nc1ncnc2[nH]cnc12)c1nc2cccc(F)c2c(=O)n1-c1ccccc1 [Idelalisib],S
4,Cc1nc(Nc2ncc(C(=O)Nc3c(C)cccc3Cl)s2)cc(N2CCN(CCO)CC2)n1 [Dasatinib],S

# System: SUDHL2
# Test: Combination of EPZ-6438 and other therapeutic agents (4+3 model), SUDHL2
# Conditions: WT EXH2 ABC
row,Structure (SMILES),"combination effect with EPZ-6438, SUDHL2"
1,Cc1sc2c(c1C)C(c1ccc(Cl)cc1)=N[C@@H](CC(=O)OC(C)(C)C)c1nnc(C)n1-2 [JQ1],S
2,CCOC(=O)CCNc1cc(N2CCc3ccccc3CC2)nc(-c2ccccn2)n1 [GSK J4],ADD.
3,CN(Cc1cnc2nc(N)nc(N)c2n1)c1ccc(C(=O)N[C@@H](CCC(=O)O)C(=O)O)cc1 [Methotrexate],ANTAG.

# System: WSU-DLCL2
# Test: Combination of EPZ-6438 and other therapeutic agents (4+3 model), WSU-DLCL2
# Conditions: Mutant EZH2 GCB; EPZ-6438 4 days then co-treatment 3 days (4+3 model)
row,Structure (SMILES),"combination effect with EPZ-6438, WSU-DLCL2"
1,Cc1sc2c(c1C)C(c1ccc(Cl)cc1)=N[C@@H](CC(=O)OC(C)(C)C)c1nnc(C)n1-2 [JQ1],S
2,CC(=O)Nc1cccc(-n2c(=O)n(C3CC3)c(=O)c3c(Nc4ccc(I)cc4F)n(C)c(=O)c(C)c32)c1 [Trametinib],S
3,CC1(C)CCC(CN2CCN(c3ccc(C(=O)NS(=O)(=O)c4ccc(NCC5CCOCC5)c([N+](=O)[O-])c4)c(Oc4cnc5[nH]ccc5c4)c3)CC2)=C(c2ccc(Cl)cc2)C1 [ABT-199],S
4,CC1(C)CCC(c2ccc(Cl)cc2)=C(CN2CCN(c3ccc(C(=O)NS(=O)(=O)c4ccc(N[C@H](CCN5CCOCC5)CSc5ccccc5)c(S(=O)(=O)C(F)(F)F)c4)cc3)CC2)C1 [Navitoclax],S
5,COc1cc(Nc2ncc3c(n2)-c2ccc(Cl)cc2C(c2c(F)cccc2OC)=NC3)ccc1C(=O)O [Alisertib],ADD.
6,CC[C@H](Nc1ncnc2[nH]cnc12)c1nc2cccc(F)c2c(=O)n1-c1ccccc1 [Idelalisib],S
7,Cn1cc(C2=C(c3cn(C4CCN(Cc5ccccn5)CC4)c4ccccc34)C(=O)NC2=O)c2ccccc21 [Enzastaurin],ADD.
8,CCOC(=O)CCNc1cc(N2CCc3ccccc3CC2)nc(-c2ccccn2)n1 [GSK J4],ADD.
9,CC(C)C[C@H](NC(=O)[C@H](Cc1ccccc1)NC(=O)c1cnccn1)B(O)O [Velcade],ADD.
10,Cc1nc(Nc2ncc(C(=O)Nc3c(C)cccc3Cl)s2)cc(N2CCN(CCO)CC2)n1 [Dasatinib],S
11,CN(Cc1cnc2nc(N)nc(N)c2n1)c1ccc(C(=O)N[C@@H](CCC(=O)O)C(=O)O)cc1 [Methotrexate],ANTAG.

# Source: patent US11951109B2, “EZH2 inhibitors for treating lymphoma” (Epizyme, Inc., priority 2015, dated 2024)
